Where two headings read alike, the source gives them in different places.
Assays:
[1] = biological target: T1, [V390I/Y410E/E274V]-CfEcR (Choristoneura fumiferana, UniProt O77240); assay type: cell-based; details: 3T3 Cells; for RMFI (relative maximum fold induction): relative to GS-E ligand
T1 construct: assay construct b835
Method: (§1) Cellular gene switch assays were performed by transiently transfecting the following constructs in mouse embryonic fibroblast cells (NIH3T3). The wild-type D, E and F domains from Choristoneura fumiferana EcR or its V390I/Y410E/E274V mutant were fused to GAL4-DBD and placed under the control of the CMV promoter in the pBIND vector (Promega Corporation, Madison, Wis., USA). The DEF domains of EcRs shown were amplified using primers designed based on 20-25 nt sequences at the 5′ and 3′ ends. Restriction enzyme sites EcoR I/BamH I and Xba I were added to 5′ and 3′ primers respectively. The PCR products were digested with appropriate restriction enzymes and cloned into pBIND vector. The EcR LBDs cloned into pBIND vector were verified by sequencing. A chimeric RXR from Homo sapiens RXRP and Locusta migratoria RXR, fused to VP16-AD and placed under the control of an SV40e promoter, was constructed as previously described (Kumar P & Katakam A in Gene Transfer, Friedmann T and Rossi J, eds, pp. 643-651 (2007), Cold Spring Harbor Laboratory Press, Cold Spring Harbor, N.Y.). The inducible luciferase reporter plasmid pFRLuc (Stratagene Cloning Systems, La Jolla, Calif., USA), contains five copies of the GAL4 response element and a synthetic minimal promoter.
(§2) NIH3T3 cells were maintained at 37′C and 5% CO2 in Dulbecco's modified Eagle's medium (DMEM) supplemented with 10% bovine calf serum, both obtained from Mediatech Inc., Manassas, Va. Cells were planted in a 96-well plate at a density of 2,500 cells/well in 50 μL of growth medium. The following day cells were first treated with 35 μL of serum-free DMEM containing dimethyl sulfoxide (DMSO; control) or a DMSO solution containing ligand. Cells were then transfected with 15 μl of serum-free DMEM containing 0.04 μg of EcR construct, 0.04 ug of RXR construct, and 0.16 μg of luciferase reporter construct per well, using SuperFect™ transfection reagent (Qiagen Inc., Valencia, Calif., USA) according to the manufacturer's instructions. Ligands were tested at 8 doses from 0.01-33 μM and the final DMSO concentration was 0.33% in both control and treatment wells. After a 48 hour post-treatment and transfection incubation, the cells were assayed for luciferase activity using the Bright-Glo™ Luciferase Assay System (Promega Corporation, Madison, Wis., USA) following the manufacturer's instructions. EC50 values were measured minimally in duplicate.
(§3) Luciferase reporter gene expression was measured 48 h after cell treatment using Bright-Glo™ Luciferase Assay System from Promega (E2650). Luminescence was detected at room temperature using a Dynex MLX microtiter plate luminometer.
(§4) Each assay was conducted in two separate wells, and the two values were averaged. Fold inductions were calculated by dividing relative light units (“RLU”) in ligand treated cells with RLU in DMSO treated cells. EC50s were calculated from dose response data using a three-parameter logistic model. Relative Max FI was determined as the maximum fold induction of the tested ligand (an embodiment of the invention) observed at any concentration relative to the maximum fold induction of GS™-E ligand (3,5-dimethyl-benzoic acid N-tert-butyl-N′-(2-ethyl-3-methoxy-benzoyl)-hydrazide) observed at any concentration.

[2] = biological target: wild-type Choristoneura fumiferana EcR (D, E and F domains) (Choristoneura fumiferana, UniProt O77240); assay type: cell-based; details: WT-CtEcR, 3T3 Cells; for RMFI (relative maximum fold induction): relative to GS-E ligand
Method: as §1, §2, §3, §4

Row | SMILES | EC50 ([1]; S) [µM] | RMFI (relative maximum fold induction) ([1]; S) | EC50 ([2]; S) [µM] | RMFI (relative maximum fold induction) ([2]; S) | EC50 ([1]; R) [µM] | RMFI (relative maximum fold induction) ([1]; R) | EC50 ([2]; R) [µM] | RMFI (relative maximum fold induction) ([2]; R)
1 | CCC[C@H](N(NC(=O)c1c(Cl)cccc1Cl)C(=O)c1cc(C)cc(C)c1)C(C)(C)C [Example 41, (S)-3,5-Dimethyl-benzoic acid N-(1-tert-butyl-butyl)-N′-(2,6-dichloro-benzoyl)-hydrazide] | ~0.7 | 0.62 | ~3.3 | 0.10 | – | – | – | –
2 | CCC[C@H](N(NC(=O)c1cc(OC)c(C)c(OC)c1)C(=O)c1cc(C)cc(C)c1)C(C)(C)C [Example 42, (S)-3,5-Dimethyl-benzoic acid N-(1-tert-butyl-butyl)-N′-(3,5-dimethoxy-4-methyl-benzoyl)-hydrazide] | ~7 | 0.08 | > 10 | – | – | – | – | –
3 | CCC[C@H](N(NC(=O)c1cccs1)C(=O)c1cc(C)cc(C)c1)C(C)(C)C [Example 43, (S)-3,5-Dimethyl-benzoic acid N-(1-tert-butyl-butyl)-N′-(thiophene-2-carbonyl)-hydrazide] | 1.06 | 0.52 | ~10 | 0.07 | – | – | – | –
4 | CCC[C@H](N(NC(=O)c1cc(C)oc1C)C(=O)c1cc(C)cc(C)c1)C(C)(C)C [Example 44, (S)-3,5-Dimethyl-benzoic acid N-(1-tert-butyl-butyl)-N′-(2,5-dimethyl-furan-3-carbonyl)-hydrazide] | ~2 | 0.49 | 7.06 | 0.32 | – | – | – | –
5 | CCC[C@H](N(NC(=O)c1cccnc1Cl)C(=O)c1cc(C)cc(C)c1)C(C)(C)C [Example 45, (S)-3,5-Dimethylbenzoic acid N-(1-tert-butyl-butyl)-N′-(2-chloro-pyridine-3-carbonyl)-hydrazide] | 1.47 | 0.80 | ~20 | 0.05 | – | – | – | –
6 | CCC[C@H](N(NC(=O)c1cccc(OC)c1C)C(=O)c1cc(C)cc(C)c1)C(C)(C)C [Example 47, (S)-3,5-Dimethyl-benzoic acid N-(1-tert-butyl-butyl)-N′-(3-methoxy-2-methyl-benzoyl)-hydrazide] | 0.0563 | 0.57 | ~0.2 | 0.49 | – | – | – | –
7 | CCC[C@H](N(NC(=O)OC(C)(C)C)C(=O)c1cc(C)cc(C)c1)C(C)(C)C [Example 48, (S)—N′-(1-tert-Butyl-butyl)-N′-(3,5-dimethyl-benzoyl)-hydrazinecarboxylic Acid tert-butyl Ester] | 6.61 | 0.20 | > 33 | 0.03 | – | – | – | –
8 | CCC[C@@H](N(NC(=O)OC(C)(C)C)C(=O)c1cc(C)cc(C)c1)C(C)(C)C [Example 49, (R)—N′-(1-tert-Butyl-butyl)-N′-(3,5-dimethyl-benzoyl)-hydrazinecarboxylic acid tert-butyl Ester] | – | – | – | – | 2.75 | 0.59 | 15.1 | 0.15
9 | CCC[C@@H](N(NC(=O)c1cccc(OC)c1C)C(=O)c1cc(OC)c(C)c(OC)c1)C(C)(C)C [Example 51, (R)-3,5-Dimethoxy-4-methyl-benzoic acid N-(1-tert-butyl-butyl)-N′-(3-methoxy-2-methyl-benzoyl)-hydrazide] | – | – | – | – | 0.00056 | 0.81 | ~0.07 | 1.00
10 | CCC[C@H](C1CCCCC1)N(NC(=O)c1cccc(OC)c1CC)C(=O)c1cc(C)cc(C)c1 [Example 52, (R)-3,5-Dimethyl-benzoic Acid N-(1-cyclohexyl-butyl)-N′-(2-ethyl-3-methoxy-benzoyl)-hydrazide] | – | – | – | – | ~0.2 | 0.64 | 0.22 | 0.38
11 | CCC[C@H](C1CCCCC1)N(NC(=O)c1ccccc1)C(=O)c1cc(C)cc(C)c1 [Example 53, (R)-3,5-Dimethyl-benzoic acid N′-benzoyl-N-(1-cyclohexyl-butyl)-hydrazide] | – | – | – | – | 0.629 | 0.62 | ~3.3 | 0.30
12 | CCC[C@H](C1CCCCC1)N(NC(=O)c1cccc(OC)c1)C(=O)c1cc(C)cc(C)c1 [Example 54, (R)-3,5-Dimethyl-benzoic acid N-(1-cyclohexyl-butyl)-N′-(3-methoxy-benzoyl)-hydrazide] | – | – | – | – | 0.474 | 0.44 | ~3.3 | 0.19
13 | CCC[C@H](C1CCCCC1)N(NC(=O)c1ccc(CC)cc1)C(=O)c1cc(C)cc(C)c1 [Example 55, (R)-3,5-Dimethyl-benzoic acid N-(1-cyclohexyl-butyl)-N′-(4-ethyl-benzoyl)-hydrazide] | – | – | – | – | ~0.07 | 0.42 | ~2 | 0.26
14 | CCC[C@@H](C1CCCCC1)N(NC(=O)c1cccc(OC)c1CC)C(=O)c1cc(C)cc(C)c1 [Example 56, (S)-3,5-Dimethyl-benzoic acid N-(1-cyclohexyl-butyl)-N′-(2-ethyl-3-methoxy-benzoyl)-hydrazide] | 0.107 | 0.52 | 0.159 | 0.37 | – | – | – | –
15 | CCC[C@@H](C1CCCCC1)N(NC(=O)c1ccccc1)C(=O)c1cc(C)cc(C)c1 [Example 57, (S)-3,5-Dimethyl-benzoic acid N′-benzoyl-N-(1-cyclohexyl-butyl)-hydrazide] | 0.769 | 0.50 | 2.75 | 0.32 | – | – | – | –
16 | CCC[C@@H](C1CCCCC1)N(NC(=O)c1cccc(OC)c1)C(=O)c1cc(C)cc(C)c1 [Example 58, (S)-3,5-Dimethyl-benzoic acid N-(1-cyclohexyl-butyl)-N′-(3-methoxy-benzoyl)-hydrazide] | 0.121 | 0.42 | ~3.3 | 0.25 | – | – | – | –
17 | CCC[C@@H](C1CCCCC1)N(NC(=O)c1ccc(CC)cc1)C(=O)c1cc(C)cc(C)c1 [Example 59, (S)-3,5-Dimethyl-benzoic acid N-(1-cyclohexyl-butyl)-N′-(4-ethyl-benzoyl)-hydrazide] | ~0.03 | 0.35 | ~1 | 0.28 | – | – | – | –
18 | C=CC[C@H](C1CCCCC1)N(NC(=O)c1cccc(OC)c1C)C(=O)c1cc(C)cc(C)c1 [Example 60, (R)-3,5-Dimethyl-benzoic acid N-(1-cyclohexyl-but-3-enyl)-N′-(3-methoxy-2-methyl-benzoyl)-hydrazide] | – | – | – | – | 0.746 | 0.78 | ~2 | 0.62
19 | C=CC[C@H](C1CCCCC1)N(NC(=O)c1cccc(OC)c1C)C(=O)c1cc(C)c(OC)c(C)c1 [Example 61, (R)-4-Methoxy-3,5-dimethyl-benzoic acid N-(1-cyclohexyl-but-3-enyl)-N′-(3-methoxy-2-methyl-benzoyl)-hydrazide] | – | – | – | – | 1.02 | 0.67 | ~3.3 | 0.33
